Test results: ChEMBL document CHEMBL1136837, “Unified QSAR approach to antimicrobials. 4. Multi-target QSAR modeling and comparative multi-distance study of the giant components of antiviral drug-drug complex networks” (Bioorg Med Chem, 2009)
Starred links: 1 amine or outer side, 2 acyl side, 3 side chain; linkers in the order of their positions; H or OH if unused. Non-standard residues stand in square brackets, D forms with d. Residues, ends and D or L forms follow the SMILES beside them. *: point of attachment. Hyp(quinolin-4-yl) = O=C(O)[C@@H]1C[C@@H](Oc2ccnc3ccccc23)CN1; Dip = N[C@H](C(=O)O)C(c1ccccc1)c1ccccc1; Hyp = O=C(O)[C@@H]1C[C@@H](O)CN1; azaNva = CCCN(N[*:1])C(=O)[*:2]; Cha = N[C@@H](CC1CCCCC1)C(=O)O; Chg = N[C@H](C(=O)O)C1CCCCC1; X9 = C[C@H](N*)c1nnn[nH]1; X7 = C[C@H](N*)C1CCCCC1; Ac3c = NC1(C(=O)O)CC1; NHBn = c1ccc(CN*)cc1; X4 = C1CCC(CCN*)CC1; Bn = c1ccc(C*)cc1

Assays:
[1] = system: Hepatitis C virus; test: Antiviral activity against Hepatitis C virus; assay type: functional, organism-based, Hepacivirus hominis; conditions: Hepatitis C virus
[2] = system: Human immunodeficiency virus 1; test: Antiviral activity against HIV1; assay type: functional, organism-based

Row | Structure (SMILES) | IC50 [1] [µM] | IC50 [2] [µM]
1 | Cc1cccc(CN(C(=O)c2ccc(Cl)cc2Cl)[C@@H](Cc2ccccc2)C(=O)O)c1 | 1.8 | –
2 | CCCN(NC(=O)[C@@H]1C[C@@H](OCc2ccccc2)CN1C(=O)[C@@H](NC(=O)[C@@H](NC(=O)[C@@H](CCC(=O)O)NC(=O)[C@H](CC(=O)O)NC(C)=O)[C@@H](C)CC)C(C)C)C(=O)N[C@@H](C)c1nnn[nH]1 (Ac-D[dE]IV[Hyp](Bn)[azaNva]-X9) | 0.86 | –
3 | CCCN(NC(=O)[C@@H]1C[C@@H](OCc2ccccc2)CN1C(=O)[C@@H](NC(=O)[C@@H](NC(=O)[C@@H](CCC(=O)O)NC(=O)[C@H](CC(=O)O)NC(C)=O)[C@@H](C)CC)C(C)C)C(=O)N[C@@H](C)C1CCCCC1 (Ac-D[dE]IV[Hyp](Bn)[azaNva]-X7) | 0.42 | –
4 | CCCC1(CC(=O)OCC)OCCc2c1[nH]c1c(C)ccc(C#N)c21 (stereo unspecified) | 30 | –
5 | CC[C@@H]1C[C@]1(NC(=O)[C@@H]1C[C@@H](Oc2cccc(-c3ccccc3)c2)CN1C(=O)[C@@H](NC(=O)[C@@H](NC(C)=O)C1CCCCC1)C(C)C)C(=O)O | 0.12 | –
6 | COc1ccc2c(O[C@@H]3C[C@H]4C(=O)N[C@]5(C(=O)O)C[C@H]5/C=C\CCCCC[C@H](NC(=O)OC5CCC5)C(=O)N4C3)cc(-c3csc(NC(C)=O)n3)nc2c1 | 0.0026 | –
7 | O=C(O)[C@H](Cc1ccccc1)N(Cc1cccc(C(F)(F)F)c1)C(=O)c1ccc(Cl)cc1Cl | 1.7 | –
8 | N#CCCCOc1ccccc1C(=O)CC(=O)C(=O)O | 0.35 | –
9 | CC(=O)N[C@@H](CC(=O)O)C(=O)N[C@@H](CCC(=O)O)C(=O)N[C@H](C(=O)N[C@@H](CCC(=O)O)C(=O)N[C@@H](CC1CCCCC1)C(=O)N[C@@H](CS)C(=O)NCc1ccccc1)C(c1ccccc1)c1ccccc1 (Ac-DE[Dip]E[Cha]C-NHBn) | 0.25 | –
10 | CNc1nc(-c2cc(O[C@@H]3C[C@H]4C(=O)N[C@]5(C(=O)O)C[C@H]5/C=C\CCCCC[C@H](NC(=O)OC5CCCC5)C(=O)N4C3)c3ccc(OC)cc3n2)cs1 | 0.0025 | –
11 | COc1ccc2c(O[C@@H]3C[C@H]4C(=O)N[C@]5(C(=O)O)C[C@H]5/C=C\CCCCC[C@H](NC(=O)OC(C)(C)C)C(=O)N4C3)cc(-c3csc(N)n3)nc2c1 | 0.0055 | –
12 | COc1ccc2c(O[C@@H]3C[C@H]4C(=O)N[C@]5(C(=O)O)C[C@H]5/C=C\CCCCC[C@H](NC(=O)OC(C)(C)C)C(=O)N4C3)cc(-n3cnc(C)c3)nc2c1 | 0.014 | –
13 | C[C@@]1(O)[C@H](O)[C@@H](CO)O[C@H]1n1ccc2c(N)nc(F)nc21 | 100 | –
14 | N#Cc1ccccc1CN(C(=O)c1ccc(Cl)cc1Cl)[C@@H](Cc1ccccc1)C(=O)O | 6 | –
15 | CCCC1(CC(=O)O)OCCc2c1[nH]c1c(F)ccc(C#N)c21 (single isomer, unassigned) | 5.2 | –
16 | CCc1ccc(C(=O)CC(=O)C(=O)O)cc1 | 47 | –
17 | O=C(O)[C@H](Cc1ccccc1)N(Cc1cccc(F)c1)C(=O)c1ccc(Cl)cc1Cl | 3.2 | –
18 | COC(=O)c1ccccc1CCNC(=O)[C@H](CS)NC(=O)[C@H](CC(C)C)NC(=O)[C@H](CCC(=O)O)NC(=O)OCC(C)C | 54 | –
19 | COc1ccc2c(O[C@@H]3C[C@H]4C(=O)N[C@]5(C(=O)O)C[C@H]5/C=C\CCCCC[C@H](NC(=O)OC(C)(C)C)C(=O)N4C3)cc(-n3ccc(C)n3)nc2c1 | 0.003 | –
20 | CC(=O)N[C@@H](CC(=O)O)C(=O)N[C@@H](CCC(=O)O)C(=O)N[C@H](C(=O)N[C@@H](CCC(=O)O)C(=O)N[C@@H](CC1CCCCC1)C(=O)N[C@@H](CS)C(=O)NCCC1CCCCC1)C(c1ccccc1)c1ccccc1 (Ac-DE[Dip]E[Cha]C-X4) | 1.54 | –
21 | CC(=O)N[C@H](C(=O)N[C@H](C(=O)N1C[C@H](Oc2ccnc3ccccc23)C[C@H]1C(=O)NC1(C(=O)O)CC1)C(C)C)C1CCCCC1 (Ac-[Chg]V[Hyp(quinolin-4-yl)][Ac3c]-OH) | 2.2 | –
22 | CC(=O)N[C@H](C(=O)N[C@H](C(=O)N1C[C@H](Oc2cccc(Br)c2)C[C@H]1C(=O)NC1(C(=O)O)CC1)C(C)C)C1CCCCC1 | 52 | –
23 | COc1ccc2c(O[C@@H]3C[C@H]4C(=O)N[C@]5(C(=O)O)C[C@H]5/C=C\CCCCC[C@H](NC(=O)OC(C)(C)C)C(=O)N4C3)cc(-c3csc(NC(C)=O)n3)nc2c1 | 0.0048 | –
24 | O=C(CC(O)C(=O)O)c1ccccc1 (stereo unspecified) | 50 | –
25 | CCCC1(CC(=O)O)OCCc2c1[nH]c1c(C)ccc(C#N)c21 (stereo unspecified) | 0.57 | –
26 | CC(=O)N[C@H](C(=O)N[C@H](C(=O)N1C[C@H](OCc2cccc3ccccc23)C[C@H]1C(=O)N[C@@]1(C(=O)O)C[C@@H]1C(C)C)C(C)C)C1CCCCC1 | 640 | –

Row | Structure (SMILES) | IC50 [1] [µM] | IC50 [2] [µM]
27 | CC(=O)Nc1ccc(C(OCCn2c([N+](=O)[O-])cnc2C)c2ccccc2)cc1 (stereo unspecified) | – | 200
28 | COC(=O)C(=O)CC(=O)c1cc2ccccc2n1C | – | 106
29 | Nc1nc(Cl)c2ncn([C@@H]3O[C@H](CO)C=C3F)c2n1 | – | 4.3
30 | CCCCCCCCOC(=O)c1cc2c([nH]c3ccccc32)c(-c2ccc3c(n2)C(=O)C(NC(C)=O)=CC3=O)n1 | – | 7.1
31 | C=C(C)[C@@H]1CC[C@]2(C(=O)N[C@@H](CC(C)C)C(=O)O)CC[C@]3(C)[C@H](CC[C@@H]4[C@@]5(C)CC[C@H](O)C(C)(C)[C@@H]5CC[C@]43C)[C@@H]12 | – | 3.22
32 | O=c1nc(O)ccn1[C@@H]1CC(F)(F)[C@H](CO)O1 | – | 100
33 | C=C(C)[C@@H]1CC[C@]2(C(=O)NCCCCCCCCCCC(=O)O)CC[C@]3(C)[C@H](CC[C@@H]4[C@@]5(C)CC[C@H](O)C(C)(C)[C@@H]5CC[C@]43C)[C@@H]12 | – | 0.7
34 | O=C(O)/C(O)=C/C(=O)c1cccc(C(=O)/C=C(\O)C(=O)O)c1 | – | 1.83
35 | N#Cc1c(Cl)n([C@H]2C[C@H](O)[C@@H](CO)O2)c2cc(Cl)c(Cl)cc12 | – | 35
36 | O=Cc1c(Cl)n([C@@H]2O[C@H](CF)[C@@H](O)[C@H]2O)c2cc(Cl)c(Cl)cc12 | – | 20
37 | Cc1ncc([N+](=O)[O-])n1CCOC(c1ccccc1)c1ccccc1[N+](=O)[O-] (stereo unspecified) | – | 0.6
38 | NC(=O)c1cccc2c1nc(-c1c(F)cccc1F)n2Cc1c(F)cccc1F | – | 0.37
39 | Cc1ccnc(N2C(=O)CSC2c2c(F)cccc2Cl)c1 (stereo unspecified) | – | 0.099
40 | OC[C@@H]1O[C@@H](n2cnc3c(O)ncnc32)CC1(F)F | – | 100
41 | Cc1cc(/C=C/C#N)cc(C)c1Oc1ccnc(Nc2ccc(C#N)cc2)n1 | – | 0.001
42 | Nc1nc2c(ncn2C2C=CC(OCP(=O)(O)OP(=O)(O)OP(=O)(O)O)C2)c(=O)[nH]1 (stereo unspecified) | – | 0.3
43 | CC(C)OC(=O)c1cn(S(=O)(=O)c2ccccc2)c2ccc(Cl)cc12 | – | 200
44 | Nc1ncnc2c1ncn2C1C=CC(OCP(=O)(O)OP(=O)(O)C(Br)(Br)P(=O)(O)OP(=O)(O)COC2C=CC(n3cnc4c(N)ncnc43)C2)C1 (stereo unspecified) | – | 200
45 | O=C(O)/C(O)=C/C(=O)c1cccc(OCc2ccccc2)c1 | – | 0.35
46 | OC[C@@H]1O[C@H](n2cnc3c(O)ncnc32)CC1(F)F | – | 100
47 | COc1ccc(CC2CCN(C3(C)CCN(C(=O)c4c(C)cccc4C)CC3)CC2)cc1 | – | 0.026
48 | Nc1nc(=O)n([C@@H]2S[C@H](CO)C=C2F)cc1F | – | 11.6
49 | Cc1cn([C@H]2O[C@H](CO)C=C2F)c(=O)nc1N | – | 100
50 | O=C1CSC(c2c(F)cccc2F)N1c1cccc(Br)n1 (stereo unspecified) | – | 0.03
51 | Nc1nc2c(ncn2C2C=CC(OCP(=O)(O)OP(=O)(O)C(Br)(Br)P(=O)(O)O)C2)c(=O)[nH]1 (stereo unspecified) | – | 200
